Experimental findings from US12534438B2, “Cannabinoid derivative as a pharmaceutically active compound and method of preparation thereof” (priority 2020, dated 2026) are described below.

The structures appear in SMILES notation. Where two headings read alike, the source gives them in different places.

Series [1] can be described thus: Plasma pharmacokinetics following oral dose administration to male Wistar Han rats. Conditions: rat, oral gavage; for half-life / AUC(0-inf) / AUC(0-t) / Cmax / Tmax: plasma. The series is classed as in vivo. Here is the method:
The plasma pharmacokinetics of compound 1 was assessed following oral dose administration to male Wistar Han Rats.
The Wistar Han Rat was chosen as the animal model for this study as it is an accepted rodent species for preclinical toxicity testing by regulatory agencies. Animals were socially housed (up to 3 animals of the same group) in polycarbonate cages containing appropriate bedding equipped with water bottles and may be provided with items such as devices for hiding in, paper and/or objects for chewing, unless contraindicated by study procedures. Pelleted rodent diet were provided ad libitum throughout the study, except during designated procedures.
The 9 male animals were 8 to 10 weeks old at initiation of dosing.
Vehicle: 1% Ethanol/12% Kolliphor HS-15/87% Saline (w/w/v).
Dose formulation was prepared as follows: test item was dissolved in ethanol. Kolliphor HS-15 and saline was heated separately to 60° C., and the required amount of heated Kolliphor HS-15 added to the test item/ethanol solution. The mixture was stirred at until homogenous. Hot saline was added to the mixture to meet dose level requirements, and stirred at 60° C. until a homogenous solution. Prior to release, the formulations were allowed to cool to 40° C. Subsequently, the formulations were stored at room temperature until dosing.
Groups 1, 2 and 3: The test item was administered to the appropriate animals by oral gavage. The dose was given using a plastic feeding tube.
PK Sample Collection: From animals in Group 1 to 3 blood was collected according to the PK sample collection table (outlined in Table 3). Approximately 0.2 mL blood samples was taken from the jugular vein and collected into tubes containing K2 EDTA as anti-coagulant and stored on ice.
Sample Processing and Storage: Whole blood was processed to plasma by centrifugation (3000 g for 10 minutes at 5° C.) within 1 hour of collection. Plasma samples were transferred into labelled polypropylene tubes and stored at <−75° C. until shipment.

Series [2] has as its system mouse model of generalised seizure (tonic hind limb extensor convulsions). Put plainly: Maximal electroshock seizure threshold (MEST) test in the mouse. Conditions: 30 min post dose. Here is the method:
The efficacy of the cannabinoid derivative according to formula (I) was tested in a mouse model of generalised seizure, the maximal electroshock seizure threshold (MEST) test.
The maximal electroshock seizure threshold (MEST) test is widely utilized preclinically to evaluate pro- or anti-convulsant properties of test compounds (Loscher et al., 1991).
In the MEST test the ability of a drug to alter the seizure threshold current required to induce hind limb tonic extensor convulsions is measured according to an “up and down” method of shock titration (Kimball et al., 1957). An increase in seizure threshold is indicative of anti-convulsant effect.
The ability of a test compound to alter the stimulus intensity, expressed as current (mA), required to induce the presence of tonic hind limb extensor convulsions, is assessed in the MEST.
Naïve mice were acclimatised to the procedure room in their home cages for up to 7 days, with food and water available ad libitum.
All animals were weighed at the beginning of the study and randomly assigned to treatment groups based on a mean distribution of body weight across groups.
The first animal within a treatment group was given a shock at the expected or estimated CC50 current. For subsequent animals, the current was lowered or raised depending on the convulsions outcome from the preceding animal, in intervals of 5 mA.
Data generated from each treatment group were used to calculate the CC50±SEM values for the treatment group.
Vehicle: (5% ethanol, 10% solutol, 85% Saline) was prepared as follows: 1 mL of ethanol, 2 mL of solutol were warmed to 60° C., in 17 mL of saline (1:2:17).
The test compound, described herein as compound 1, is as shown as formula (I). Test compound was administered at 2, 20 and 200 mg/kg (i.p.) in a 1:2:17 ethanol:solutol:0.9% saline formulation.
The data for each treatment group were recorded as the number of +'s and 0's at each current level employed and this information is then used to calculate the CC50 value (current required for 50% of the animals to show seizure behaviour)±standard error.
Test compound effects were also calculated as percentage change in CC50 from the vehicle control group.
Significant difference between drug-treated animals and controls were assessed according to Litchfield and Wilcoxon (1949).

[3] abbreviates: male, Wistar Han, in vivo, po, 15 mg/kg, 15 mg/kg (measured dose 15 mg/kg).
The mark [4] stands for this setting: male, Wistar Han, in vivo, po, 45 mg/kg (measured dose 101 mg/kg).
[5] abbreviates: male, Wistar Han, in vivo, po, 150 mg/kg (measured dose 204 mg/kg).

With `C=C(C)[C@@H]1CCC(C)=C[C@H]1c1c(O)cc(-c2cnn(C)c2)cc1O` [Compound 1, (1′R,2′R)-5′-methyl-4-(1-methyl-1H-pyrazol-4-yl)-2′-(prop-1-en-2-yl)-1′,2′,3′,4′-tetrahydro-[1,1′-biphenyl]-2,6-diol], the half-life is 3.3 h in series [1] (male, Wistar Han, in vivo, 15 mg/kg (measured dose 15 mg/kg)); 3.6 h in series [1] (male, Wistar Han, in vivo, 45 mg/kg (measured dose 101 mg/kg)); 4.3 h in series [1] (male, Wistar Han, in vivo, 150 mg/kg (measured dose 204 mg/kg)). Besides, the values for the AUC(0-inf) in series [1] (setting [3]), in series [1] (setting [4]) and in series [1] (setting [5]) were 5330 ng·h/mL, 48300 ng·h/mL and 105000 ng·h/mL, respectively. Moreover, the AUC(0-t) came out at 4250 ng·h/mL in series [1] (setting [3]), 47900 ng·h/mL in series [1] (setting [4]) and 101000 ng·h/mL in series [1] (setting [5]). Besides, the Cmax turned out to be 1130 ng/mL in series [1] (setting [3]), 4010 ng/mL in series [1] (setting [4]) and 6730 ng/mL in series [1] (setting [5]). The results for the Tmax in series [1] (setting [3]), in series [1] (setting [4]) and in series [1] (setting [5]) were 1 h, 1 h and 8 h, respectively. The bioavailability is 69.6% in series [1] (male, Wistar Han, in vivo, po, 15 mg/kg, 15 mg/kg (measured dose 15 mg/kg), read-out: Bioavailability); 96.4% in series [1] (male, Wistar Han, in vivo, po, 45 mg/kg (measured dose 101 mg/kg), read-out: Bioavailability); 107% in series [1] (male, Wistar Han, in vivo, po, 150 mg/kg (measured dose 204 mg/kg), read-out: Bioavailability); “high” in series [1] (across concentrations (15, 45, 150 mg/kg)). For the same molecule, the “CC50 +/- SEM” value in series [2] (2 mg/kg i.p.) is 30.8 ± 1.0 mA; in series [2] (20 mg/kg i.p.), 52.5 ± 1.3 mA; in series [2] (200 mg/kg i.p.), 197.5 ± 20.4 mA. Also, the “% change from vehicle” value in series [2] (CC50, 2 mg/kg i.p.) is given as 27%; in series [2] (CC50, 20 mg/kg i.p.) it was 116%; in series [2] (CC50, 200 mg/kg i.p.), 712%.

As to `CN1C(=O)CN=C(c2ccccc2)c2cc(Cl)ccc21` [Diazepam, diazepam, reference compound], in series [2] (CC50, diazepam 2.5 mg/kg i.p.), the “% change from vehicle” value came to 223%.

Broadly, the half-life is how long it takes for the measured level to halve. One may read the AUC(0-inf) as total exposure, with the tail of the curve extrapolated. Lower therefore signals low exposure. For orientation: AUC(0-t) means the area under the concentration-time curve up to a stated or last time point. The low end stands for less exposure, the high end for more exposure. Broadly, the Cmax is the maximum level reached in the sampled fluid or tissue. As usually defined, the Tmax is the time at which the peak concentration occurs.
